{
  "source": "patent US20080021049A1",
  "about": "“Treatment Of Diet-Related Conditions Using Phospholipase-A2 Inhibitors Comprising Indoles And Related Compounds” (priority 2004, published 2008)",
  "key": {"[1]": {"target": "human pancreatic secreted PLA2 (hps PLA2) (Homo sapiens, UniProt P04054)", "sequence (P04054 23-148)": "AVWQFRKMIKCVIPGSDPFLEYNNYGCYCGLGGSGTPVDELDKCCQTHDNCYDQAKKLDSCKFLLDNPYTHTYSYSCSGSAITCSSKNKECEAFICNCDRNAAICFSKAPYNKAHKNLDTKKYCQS", "settings": "reported literature data; cited from earlier work"}, "[2]": {"target": "porcine pancreatic secreted PLA2 (pps PLA2) (Sus scrofa, UniProt P00592)", "sequence (P00592 23-146)": "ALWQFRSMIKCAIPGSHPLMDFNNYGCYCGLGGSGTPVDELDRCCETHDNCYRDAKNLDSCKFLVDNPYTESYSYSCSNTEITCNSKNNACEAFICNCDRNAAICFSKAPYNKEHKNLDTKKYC", "settings": "reported literature data; cited from earlier work"}, "[3]": {"assay_type": "in vivo, mice", "settings": "for body weight gain compared to wild-type control group: week 4 and week 10"}, "[4]": {"assay": "Pharmokinetic study, bioavailability (Example 6C)", "assay_type": "in vivo, mice", "description": "This example characterized ILY-4001 [2-(3-(2-amino-2-oxoacetyl)-1-(biphenyl-2-ylmethyl)-2-methyl-1H-indol-4-yloxy)acetic acid], alternatively referred to herein as methyl indoxam, with respect to activity, as determined by IC50 assay (Example 6A), with respect to cell absorption, as determined by in-vitro Caco-2 assay (Example 6B) and with respect to bioavailability, as determined using in-vivo mice studies (Example 6C).\nBioavailability was calculated as a ratio of AUC-oral/AUC-intravenous (IV). To determine this ratio, a first set of subject animals were given a measured intravenous (IV) dose of ILY-4001, followed by a determination of ILY-4001 levels in the blood at various time points after administration (e.g., 5 minutes through 24 hours). Another second set of animals was similarly dosed using oral administration, with blood levels of ILY-4001 determined at various time points after administration (e.g., 30 minutes through 24 hours). The level of ILY-4001 in systemic circulation were determined by generally accepted methods (for example as described in Evans, G., A Handbook of Bioanalysis and Drug Metabolism. Boca Raton, CRC Press (2004)). Specifically, […]/mass spectrometry/mass spectrometry (LC/MS/MS) analytical methods were used to quantitate plasma concentrations of ILY-4001 after oral and intravenous administration. […]"}, "Stability at low pH": {"assay": "Stability at low pH", "assay_type": "physicochemical"}, "mouse PLA2 IB enzyme": {"target": "mouse PLA2 IB enzyme (Mus musculus, UniProt Q9Z0Y2)", "sequence (Q9Z0Y2 23-146)": "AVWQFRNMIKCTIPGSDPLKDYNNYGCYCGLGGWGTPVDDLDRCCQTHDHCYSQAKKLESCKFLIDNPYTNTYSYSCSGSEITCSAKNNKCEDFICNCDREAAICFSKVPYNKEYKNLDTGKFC", "settings": "pyrene substrate release from vesicles (Singer, Ghomashchi et al. 2002); read-out: IC50 versus the mouse PLA2 IB enzyme; cited from earlier work"}, "human PLA2 IB enzyme": {"target": "human PLA2 IB enzyme (Homo sapiens, UniProt P04054)", "sequence (P04054 23-148)": "as the sequence (P04054 23-148) above", "settings": "pyrene substrate release from vesicles (Singer, Ghomashchi et al. 2002); read-out: IC50 versus the human PLA2 IB enzyme; cited from earlier work"}, "[5]": {"assay_type": "in vivo, mice", "settings": "low dose 25 mg/kg/day in diet"}, "[6]": {"assay_type": "in vivo, mice", "settings": "10 weeks"}, "Caco-2 cells [7]": {"tested_on": "Caco-2 cells", "assay": "Caco-2 permeability study (Example 6B)"}, "Caco-2 cells [8]": {"tested_on": "Caco-2 cells"}},
  "note": "Read-outs that look alike come from different tables or passages of the source.",
  "data": [
    {"compound": "Cc1c(CC(N)=O)c2c(OCC(=O)O)cccc2n1Cc1cccc(Cl)c1", "values": [
      {"measurement": "IC50", "setting": "[1]", "result": 1.2, "unit": "µM"},
      {"measurement": "IC50", "setting": "[2]", "result": 0.02, "unit": "µM"}
    ]},
    {"compound": "Cc1c(CC(N)=O)c2c(OCC(=O)O)cccc2n1Cc1ccccc1-c1ccccc1", "values": [
      {"measurement": "IC50", "setting": "[1]", "result": 4.09, "unit": "µM"},
      {"measurement": "IC50", "setting": "[2]", "result": 0.014, "unit": "µM"}
    ]},
    {"compound": "Cc1c(CC(=O)NN)c2cc(OCCCC(=O)O)ccc2n1Cc1ccccc1", "values": [
      {"measurement": "IC50 (μM) hps PLA2", "setting": "[1]", "result": "no activity"},
      {"measurement": "IC50 (μM) pps PLA2", "setting": "[2]", "result": "no activity"}
    ]},
    {"compound": "Cc1c(C(=O)C(N)=O)c2c(/C=C/C(=O)O)cccc2n1Cc1ccccc1", "values": [
      {"measurement": "IC50", "setting": "[1]", "result": "> 100", "unit": "µM"}
    ]},
    {"compound": "Cc1c(C(=O)C(N)=O)c2c(CCC(=O)O)cccc2n1Cc1ccccc1", "values": [
      {"measurement": "IC50", "setting": "[1]", "result": "> 100", "unit": "µM"}
    ]},
    {"compound": "Cc1c(C(=O)C(N)=O)c2c(OCC(=O)O)cccc2n1Cc1ccccc1-c1ccccc1", "note": "[ILY-4001, 2-(3-(2-amino-2-oxoacetyl)-1-(biphenyl-2-ylmethyl)-2-methyl-1H-indol-4-yloxy)acetic acid]", "values": [
      {"measurement": "body weight gain modulation relative to PLA2 (−/−) mice", "setting": "[3]; 25 mg/kg/d (low dose) in diet, ten weeks", "result": "comparable to that achieved in the PLA2 (−/−) mice"},
      {"measurement": "body weight gain modulation relative to PLA2 (−/−) mice", "setting": "[3]; 25 mg/kg/d in diet, four weeks", "result": "approaching that achieved in the PLA2 (−/−) mice"},
      {"measurement": "body weight gain compared to wild-type control group", "setting": "[3]; 25 mg/kg/d in diet", "result": "significantly reduced body weight gains"},
      {"measurement": "body weight gain modulation relative to PLA2 (−/−) mice", "setting": "[3]; 90 mg/kg/d in diet, four weeks", "result": "approaching that achieved in the PLA2 (−/−) mice"},
      {"measurement": "body weight gain compared to wild-type control group", "setting": "[3]; 90 mg/kg/d in diet", "result": "significantly reduced body weight gains"},
      {"measurement": "bioavailability", "setting": "[4]; mouse, plasma, oral, 30 mg/kg, read-out: % F (bioavailability)", "result": 28, "unit": "%"},
      {"measurement": "level of non-absorption from the GI tract into systemic circulation", "setting": "[4]; oral 30 mg/kg", "result": "~72", "unit": "%"},
      {"measurement": "stability at low pH", "setting": "Stability at low pH", "result": "stable at low pH"},
      {"measurement": "IC50", "setting": "mouse PLA2 IB enzyme", "result": "~150", "unit": "nM"},
      {"measurement": "IC50", "setting": "human PLA2 IB enzyme", "result": "~200", "unit": "nM"},
      {"measurement": "fasting glucose levels", "setting": "[5]; week four", "result": "moderately beneficial effect"},
      {"measurement": "fasting glucose levels", "setting": "[5]; week ten", "result": "a beneficial effect was not observed"},
      {"measurement": "plasma level of cholesterol", "setting": "[6]; high dose 90 mg/kg/day in diet", "result": "substantially reduced"},
      {"measurement": "plasma level of triglycerides", "setting": "[6]; high dose 90 mg/kg/day in diet", "result": "substantially reduced"},
      {"measurement": "plasma level of cholesterol", "setting": "[6]; low dose 25 mg/kg/day in diet", "result": "substantially reduced"},
      {"measurement": "plasma level of triglycerides", "setting": "[6]; low dose 25 mg/kg/day in diet", "result": "substantially reduced"},
      {"measurement": "apparent permeability (Papp)", "setting": "Caco-2 cells [7]; 50 ug/ml in apical well, sampled basolateral, Caco-2 monolayer", "result": "around 1.66×10^−7 cm/s"},
      {"measurement": "absorption from the GI lumen", "setting": "Caco-2 cells [7]; based on Caco-2 assays and pharmokinetic studies", "result": "relatively low absorption"}
    ]},
    {"compound": "Lucifer Yellow", "values": [
      {"measurement": "apparent permeability (Papp)", "setting": "Caco-2 cells [8]", "result": "around 2.82×10^−7+/−0.37×10^−7 cm/s"}
    ]}
  ]
}
